The values below come from patent US20010029347A1, “Transdermal administrating device” (POLYTRONICS, LTD., priority 2000, published 2001).

Details of series [1]: species or system HWY hairless rats. The following applies: HWY hairless, rat, in vivo. The protocol: Transdermal administrating devices were attached on the back of each body of HWY hairless rats. A number of the rats were three a group. The concentration of L-ascorbic acid in blood was chemically detected to control the drug concentration in the blood [M^−]. The procedure thereof is described hereunder.
First, a calibration line was prepared. The EB was set at 1.5 V and the transdermal administrating device was attached on the back of each of the test rats.
In addition, blood examination for the rats was performed at those times. From the blood examination, the concentration of ascorbic acid in blood [M^−] was determined.
Next, using the calibration line shown in FIG. 5, the concentration of ascorbic acid in blood [M^−] was promptly converged to a constant value.
According to the indication from the CPU 6, the bias DC power supply 7 was operated to set EB=8V.
When the concentration of ascorbic acid in blood [M^−] should be maintained at a constant value, for example, at 5 (arb. unit) in FIG. 5, the Rd0 should be 6.3 kΩ (kilo ohm) based on the calibration line shown in FIG. 5.
In this case, when the Rd was determined, the EB was temporarily changed to 1.5 V and the voltage drop Vi at the external load was measured.
At the measurement after the current flowing time has elapsed for 20 minutes, the Rd was lower than the Rd0. The CPU 6 operated to feed back the bias voltage to reduce the bias voltage EB.

A short description of series [2]: Concentration of Polyoxomethalate ion in blood of nude mouse during iontophoresis with transdermal administrating device V (Example 5, no bias power supply). The format is in vivo. As for the experimental part: When the transdermal administrating device V according to Example 5 was loaded on the back of a nude mouse, the chemical cell formed by the active electrode 22 and the inert electrode 24 generated an electromotive force of about 2.9V.
Removing the variable resistor 31 out of the circuit, the measurement and arithmetic operation for Rd and the measurement of the blood concentration in blood [M^−] were performed to prepare a calibration line representing the relationship between the Rd and the [M^−].
Next, a Rd0 value corresponding to a target concentration [M^−]0 was determined from the calibration line and the variable resistor […] was connected to the circuit.
The concentration of drug was controlled by controlling the value of the variable resistor 31 with measuring the Rd at varying times.

In the case of `O=C1O[C@H]([C@@H](O)CO)C(O)=C1O` [ascorbic acid, L-ascorbic acid], in series [1], the “concentration of ascorbic acid in blood [M-], overshoot value” is on record as “about 6.5 arb. unit” and the “time after the beginning of flowing a current to converge to constant blood concentration” value is recorded as “about 1.5 hours”. Moreover, in series [1] (1.5 hours), the “concentration of ascorbic acid in blood [M-], converged constant value” is listed as roughly 5 arb. unit.
For the compound K5[SiVW11O40] [Polyoxomethalate ion], the “time after the beginning of flowing a current from which blood concentration [M-] is kept at the target concentration” value in series [2] (control by variable resistor, no bias DC power supply) is reported as “about 2 hours”. For the same compound, the “permeability (iontophoresis through skin)” value in series [2] (without bias DC power supply) is “high permeability”.
